Common to all, as to assay type: in vivo, mouse
In experiment [1] the test system is Acute Renal Failure Animal Model. Briefly: Test using acute renal failure animal model (renal ischemia and reperfusion), renal function parameters. The conditions noted are these: for Cer: creatinine clearance; for FENa: fractional excretion of sodium; for KW: kidney weight. The text has this:
A male ddY strain mouse (30 g) was used as an experimental animal. Under anesthesia with isoflurane, the right flank was incised about 2 cm to expose the kidney. After ligating the renal arteries and veins and the ureter, the right kidney was isolated.
A recovery period of 2 weeks was given, and then an acute renal failure mouse model was produced. Under anesthesia with isoflurane, the left abdomen was incised about 3 cm to expose the left kidney, and the fat around the renal arteries and veins was removed. The blood flow in the left renal arteries and veins was blocked using an atraumatic clip, and the kidney was left in ischemia for 45 minutes. The blood flow was then reperfused by removing the atraumatic clip, the kidney was returned to the abdominal cavity, and the flank was sutured. Mice similarly subjected to the steps other than the ischemia and reperfusion steps using the atraumatic clip were designated as a sham group (eight mice).
After 15 minutes of the initiation of ischemia, the vehicle, SMTP-7, SMTP-27, SMTP-44D, and edaravone were continuously administered to the femoral vein for 30 minutes.
24 hours after the ischemia and reperfusion processes, urine was collected for 24 hours using a metabolic cage, and the urinary output (UF; μL/min/kg) was measured. During collecting urine, only water was freely given. After urine collection, the body weight of each mouse was measured, and blood was collected from the abdominal aorta under anesthesia with isoflurane. After blood collection, the left kidney was isolated and the fat was removed in physiological saline. The kidney weight (KW; mg/g) was measured, and then the kidney was fixed in a 10% neutral buffered formalin solution for Hematoxylin Eosin (HE) staining.
The collected blood was centrifuged at 800×g for 15 minutes at 25° C. to collect serum. Further, the urine collected using a metabolic cage was also used to evaluate renal function. In order to evaluate parameters in the serum, blood urea nitrogen (BUN; mg/dL) was measured using a QuantiChrom Urea Assay Kit (Funakoshi Co., Ltd.). Serum creatinine concentration (Scr; mg/dL) and urinary creatinine concentration (Ucr; mg/dL) were measured using LabAssay (trademark) Creatinine (manufactured by Wako Pure Chemical Industries, Ltd.), and creatinine clearance (Ccr; mL/min/kg) was calculated. The concentrations of sodium in the serum and urine were measured using Fuji Dry Chem 7000 (manufactured by FUJIFILM Corporation), and fractional excretion of sodium (FENa; %) was calculated. Urinary albumin concentration (Ualb; mg/hr/kg) was measured using Albwel M (manufactured by Cosmo Bio Co., Ltd.).
In Table 11, the experimental results are expressed in mean±standard error in eight mice in each group. For comparison among multiple groups, firstly, one-way analysis of variance (ANOVA) was conducted, and then a Bonferroni test was conducted, if significant difference was recognized. Significant difference was recognized with a significance level of less than 5% (P<0.05).

The test system of experiment [2] is Chronic Renal Failure Animal Model. Briefly: Test using chronic renal failure animal model (nephrectomy + acetic acid application), renal function parameters. The conditions noted are these: Table 10 experiment (edaravone instead of SMTP-7); 30 mg/kg, same regimen as the SMTP-7 30 mg/kg group. As to the method:
A male ddY strain mouse (body weight: 30 g to 40 g) was used. Under anesthesia with isoflurane, the right flank of the mouse was incised, the renal arteries and veins were ligated, and then the right kidney was isolated. After suturing, acrinol was applied to the suture site as a disinfection treatment, and enrofloxacin was subcutaneously administered at 5 mg/kg as a preventive measure against infection, and acetaminophen was subcutaneously administered at 75 mg/kg as an analgesic treatment. After a recovery period of 3 to 4 weeks, the left abdomen of the mouse was incised, 100% acetic acid was applied to both sides of the kidney 10 times. This was defined as one course, and two courses were conducted at 5 minute intervals. After suturing, postoperative treatment was conducted in the same manner as in the removal of one of the kidneys. Considering the effect of surgery, a sham group to which acetic acid was not applied was provided.
4 weeks after the application of acetic acid, SMTP-7 was administered at a dose of 10 mg/kg or 30 mg/kg. The administration was carried out three times a week for 8 consecutive weeks by intraperitoneal administration. In addition, physiological saline was similarly administered to the sham group (without acetic acid application) and the Control group (with acetic acid application).
12 weeks after the application of acetic acid, urine was collected for 24 hours using a metabolic cage, and the urinary output was measured. During collecting urine, water was freely given. After urine collection, blood was collected from the descending aorta, the collected blood was centrifuged at 3000 rpm for 15 minutes, serum was separated, and BUN (urea nitrogen) and sCr (serum creatinine value) were measured. Further, protein and creatinine in the urine were also measured to calculate creatinine clearance (Ccr). BUN was measured using Urea B-test Wako (manufactured by Wako Pure Chemical Industries, Ltd.) and a QuantiChrom Urea Assay Kit (manufactured by Funakoshi Co., Ltd.), sCr was measured using Lab Assay Creatinine (manufactured by Wako Pure Chemical Industries, Ltd.), and urinary protein was measured using a BCA Protein assay kit (Thermo Fisher Scientific).
Renal function was evaluated by measuring BUN, sCr, urinary output, and urinary protein. In addition, urinary creatinine was measured to calculate creatinine clearance (Ccr).
In Table 9, the experimental results are expressed in mean±standard error. With reference to statistically significant difference, an unpaired test between two groups (Student's t-test) was conducted for comparison between two groups, and one-way analysis of variance was conducted and then a Dunnett test was conducted for comparison among multiple groups. In all cases, a significance level of 5% or less (P<0.05) was regarded as significant difference.
The experiment and evaluation were carried out in the same manner as in the SMTP-7 (30 mg/kg) administration group, except that edaravone (30 mg/kg) was administered instead of SMTP-7 in the SMTP-7 (30 mg/kg) administration group.

In experiment [3] the test system is Acute Renal Failure Animal Model. Briefly: Acute renal failure animal model, pathological tissue specimen (HE staining) lesion scores. The conditions noted are these: 3 mg/kg. As to the method: 24 hours after the ischemia and reperfusion processes, urine was collected for 24 hours using a metabolic cage, measurement of body weight was conducted, and blood was collected. Thereafter, nephrectomy was conducted, and formalin-fixed kidney was permeated with paraffin using an automatic embedding device to produce a paraffin block. The paraffin block was sliced into 3 μm sections with a microtome, and placed on a slide glass. Then, the sections were stretched with a paraffin stretcher at 52° C., and sufficiently dried overnight in a paraffin melter at 37° C. After deparaffinization and washing with water, the sections were stained with a Mayer's hematoxylin staining solution for 1 minute and washed with running water for 15 minutes. Thereafter, the sections were stained with an eosin staining solution for 45 seconds, and dehydrated with 80% to 100% ethanol, followed by clearing with xylene and sealing with marinol. Each specimen was examined microscopically at a magnification of 50 using an optical microscope. With respect to tubular dilatation, tubular necrosis, and tubular casts in the cortex, outer zone of outer medulla, and inner zone of outer medulla, the percentage of lesions in each site was evaluated according to the following criteria.
In Table 12, the experimental results are expressed in mean±standard error in eight mice in each group. For comparison among multiple groups, firstly, one-way analysis of variance (ANOVA) was conducted, and then a Bonferroni test was conducted, if significant difference was recognized. Significant difference was recognized with a significance level of less than 5% (P<0.05).

The mark [4] stands for this setting: 30 mg/kg continuous femoral vein 30 min from 15 min after start of 45 min ischemia, mean±SE, 8 mice.
The mark [5] stands for this setting: 30 mg/kg, acute renal failure model.
[6] abbreviates: 30 mg/kg continuous femoral vein 30 min from 15 min after start of 45 min ischemia, mean±SE, 8 mice, 30 mg/kg.
Setting [7] is: urinary albumin, 30 mg/kg continuous femoral vein 30 min from 15 min after start of 45 min ischemia, mean±SE, 8 mice.
Where [8] appears, read: urinary output, 30 mg/kg continuous femoral vein 30 min from 15 min after start of 45 min ischemia, mean±SE, 8 mice.
Where [9] appears, read: 3 mg/kg continuous femoral vein 30 min from 15 min after start of 45 min ischemia, mean±SE, 8 mice.
Setting [10] is: 3 mg/kg, acute renal failure model.
[11] abbreviates: 3 mg/kg continuous femoral vein 30 min from 15 min after start of 45 min ischemia, mean±SE, 8 mice, 3 mg/kg.
The mark [12] stands for this setting: points 0 (no lesion) to 4 (severe, 50% or more), mean±SE, 8 mice.

In experiment [1] (setting [4]), `CC(C)=CCC/C(C)=C/CCC1(C)Oc2c(c(O)cc3c2CN(c2cc(C(=O)O)ccc2O)C3=O)CC1O` (stereo not drawn) [SMTP-27] displayed a BUN of 59.7 ± 10.5 mg/dL and a Scr of 0.5 ± 0.0 mg/dL. Besides, in experiment [1] (setting [5]), the UF turned out to be 4.67 ± 0.984 mL/h/kg and the Ualb is 2.0 ± 0.4 mg/h/kg. In experiment [1] (setting [6]), this molecule gave a Cer of 150 ± 6 mL/h/kg, an FENa of 0.8±0.1% and a KW of 13.8 ± 0.7 mg/g. Besides, the Ualb in experiment [1] (setting [7]) was 2 ± 0.4 mg/h/kg. The molecule further displayed a UF in experiment [1] (setting [8]) of 4.67 ± 0.984 mL/h/kg.

Regarding `CC1=NN(c2ccccc2)C(=O)C1` [edaravone, reference compound], in experiment [2], the Urinary output came to 3.77 ± 0.704 mL/h/kg and the Urinary protein is given as 553 ± 109 mg/kg/day. In experiment [1] (setting [9]), the BUN amounted to 61.1 ± 5.9 mg/dL and the Scr is 0.5 ± 0.0 mg/dL. In experiment [1] (setting [10]), this molecule had a UF of 3.32 ± 0.726 mL/h/kg and a Ualb of 0.9 ± 0.2 mg/h/kg. Besides, in experiment [1] (setting [11]), the Cer is 126 ± 12 mL/h/kg, the FENa is recorded as 1.0±0.1% and the KW came out at 13.4 ± 0.6 mg/g. Moreover, in experiment [1] (urinary albumin, 3 mg/kg continuous femoral vein 30 min from 15 min after start of 45 min ischemia, mean±SE, 8 mice), the Ualb was determined as 0.9 ± 0.2 mg/h/kg. The same molecule returned a UF in experiment [1] (urinary output, 3 mg/kg continuous femoral vein 30 min from 15 min after start of 45 min ischemia, mean±SE, 8 mice) of 3.32 ± 0.726 mL/h/kg. Further, the “Histopathological changes (lesion changes), result in words” value in experiment [3] (compared to control group) is “lesion changes were significantly improved only in tubular necrosis and tubular casts in the outer zone of outer medulla of the kidney and tubular casts in the inner zone of outer medulla”. In experiment [3] (setting [12]), the “Tubular cast score, Cortex” value turned out to be 0.9 ± 0.1; the “Tubular cast score, Inner zone of outer medulla” value is 1.5 ± 0.4; the “Tubular cast score, Outer zone of outer medulla” value was found to be 1.0 ± 0.2; the “Tubular dilatation score, Cortex” value is 3.0 ± 0.5. In addition, in experiment [3] (setting [12]), the “Tubular dilatation score, Inner zone of outer medulla” value came to 2.4 ± 0.5; the “Tubular dilatation score, Outer zone of outer medulla” value stood at 2.4 ± 0.5; the “Tubular necrosis score, Cortex” value stood at 0.9 ± 0.1; the “Tubular necrosis score, Inner zone of outer medulla” value is listed as 0.9 ± 0.1. For the same molecule, the “Tubular necrosis score, Outer zone of outer medulla” value in experiment [3] (setting [12]) worked out at 0.9 ± 0.1.

In experiment [1] (setting [4]), `CC(C)=CCCC(C)=CCCC1(C)Oc2c(c(O)cc3c2CN(C(C(=O)O)c2ccc(O)cc2)C3=O)CC1O` (stereo not drawn) [SMTP-44D] gave a BUN of 55.7 ± 14.2 mg/dL and a Scr of 0.6 ± 0.1 mg/dL. In experiment [1] (setting [5]), the UF turned out to be 6.192 ± 2.008 mL/h/kg and the Ualb turned out to be 1.3 ± 0.3 mg/h/kg. In experiment [1] (setting [6]), the Cer is 138 ± 24 mL/h/kg, the FENa came out at 1.2±0.1% and the KW came to 12.3 ± 1.2 mg/g. In experiment [1] (setting [7]), this molecule had a Ualb of 1.3 ± 0.3 mg/h/kg. In experiment [1] (setting [8]), the UF is 6.19 ± 2.02 mL/h/kg.

For the origin of these results see patent publication US20250099427A1, “Drug and Method of Treating or Preventing Renal Disease Using Drug” (Showa University, priority 2018, published 2025).
